Source: the supplement of paper PMC10307832

How the values were obtained:
Assay in all cases: relative viability (nuclei count vs DMSO), 5 days (fraction); higher = more cells survive
Everolimus + Phenformin = compound: CO[C@H]1C[C@@H]2CC[C@@H](C)[C@@](O)(O2)C(=O)C(=O)N2CCCC[C@H]2C(=O)O[C@H]([C@H](C)C[C@@H]2CC[C@@H](OCCO)[C@H](OC)C2)CC(=O)[C@H](C)/C=C(\C)[C@@H](O)[C@@H](OC)C(=O)[C@H](C)C[C@H](C)/C=C/C=C/C=C/1C [Everolimus] + N=C(N)NC(=N)NCCc1ccccc1 [Phenformin] (partner 250 µM)
How it was run: (§1)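 Relative viability divides the nuclei count in treated wells by that in vehicle wells. Lung cancer cell lines were seeded in 1536-well plates, dosed by pin tool the next day, and fixed and stained after 5 days in one step with final 0.05% Triton X-100, 1% formaldehyde and 1 ug/ml Hoechst. Dosing was a single drug or a fixed anchor-drug dose plus five library-drug doses (not always all listed) in √10 steps, and values are medians of duplicate plates imaged at 4×.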

Everolimus + AZD7762 = compound: CO[C@H]1C[C@@H]2CC[C@@H](C)[C@@](O)(O2)C(=O)C(=O)N2CCCC[C@H]2C(=O)O[C@H]([C@H](C)C[C@@H]2CC[C@@H](OCCO)[C@H](OC)C2)CC(=O)[C@H](C)/C=C(\C)[C@@H](O)[C@@H](OC)C(=O)[C@H](C)C[C@H](C)/C=C/C=C/C=C/1C [Everolimus] + NC(=O)Nc1cc(-c2cccc(F)c2)sc1C(=O)N[C@H]1CCCNC1 [AZD7762] (partner 0.2 µM)
How it was run: as §1

Everolimus + Pictilisib = compound: CO[C@H]1C[C@@H]2CC[C@@H](C)[C@@](O)(O2)C(=O)C(=O)N2CCCC[C@H]2C(=O)O[C@H]([C@H](C)C[C@@H]2CC[C@@H](OCCO)[C@H](OC)C2)CC(=O)[C@H](C)/C=C(\C)[C@@H](O)[C@@H](OC)C(=O)[C@H](C)C[C@H](C)/C=C/C=C/C=C/1C [Everolimus] + CS(=O)(=O)N1CCN(Cc2cc3nc(-c4cccc5[nH]ncc45)nc(N4CCOCC4)c3s2)CC1 [Pictilisib] (partner 1 µM)
How it was run: as §1

Everolimus + Alpelisib = compound: CO[C@H]1C[C@@H]2CC[C@@H](C)[C@@](O)(O2)C(=O)C(=O)N2CCCC[C@H]2C(=O)O[C@H]([C@H](C)C[C@@H]2CC[C@@H](OCCO)[C@H](OC)C2)CC(=O)[C@H](C)/C=C(\C)[C@@H](O)[C@@H](OC)C(=O)[C@H](C)C[C@H](C)/C=C/C=C/C=C/1C [Everolimus] + Cc1nc(NC(=O)N2CCC[C@H]2C(N)=O)sc1-c1ccnc(C(C)(C)C(F)(F)F)c1 [Alpelisib] (partner 2 µM)
How it was run: as §1

| Cell Line | relative viability (Everolimus + Phenformin; first compound 0.01 µM) | relative viability (Everolimus + Phenformin; first compound 0.03162 µM) | relative viability (Everolimus + Phenformin; first compound 0.1 µM) | relative viability (Everolimus + Phenformin; first compound 0.3162 µM) | relative viability (Everolimus + Phenformin; first compound 1 µM) | relative viability (Everolimus + AZD7762; first compound 0.01 µM) | relative viability (Everolimus + AZD7762; first compound 0.03162 µM) | relative viability (Everolimus + AZD7762; first compound 0.1 µM) | relative viability (Everolimus + AZD7762; first compound 0.3162 µM) | relative viability (Everolimus + AZD7762; first compound 1 µM) | relative viability (Everolimus + Pictilisib; first compound 0.01 µM) | relative viability (Everolimus + Pictilisib; first compound 0.03162 µM) | relative viability (Everolimus + Pictilisib; first compound 0.1 µM) | relative viability (Everolimus + Pictilisib; first compound 0.3162 µM) | relative viability (Everolimus + Pictilisib; first compound 1 µM) | relative viability (Everolimus + Alpelisib; first compound 0.01 µM) | relative viability (Everolimus + Alpelisib; first compound 0.03162 µM) | relative viability (Everolimus + Alpelisib; first compound 0.1 µM) | relative viability (Everolimus + Alpelisib; first compound 0.3162 µM) | relative viability (Everolimus + Alpelisib; first compound 1 µM) |
| --- | --- | --- | --- | --- | --- | --- | --- | --- | --- | --- | --- | --- | --- | --- | --- | --- | --- | --- | --- | --- |
| 201T | 0.499 | 0.443 | 0.406 | 0.425 | 0.484 | 0.466 | 0.476 | 0.407 | 0.421 | 0.47 | 0.59 | 0.604 | 0.528 | 0.568 | 0.645 | 0.919 | 0.893 | 0.859 | 0.847 | 0.893 |
| A549 | 0.164 | 0.122 | 0.154 | 0.0954 | 0.157 | – | – | – | – | – | 0.16 | 0.178 | 0.166 | 0.182 | 0.192 | 0.328 | 0.292 | 0.272 | 0.323 | 0.204 |
| A-427 | 0.281 | 0.357 | 0.278 | 0.254 | 0.289 | 0.498 | 0.527 | 0.587 | 0.446 | 0.595 | 0.488 | 0.524 | 0.445 | 0.491 | 0.542 | 0.795 | 0.709 | 0.754 | 0.675 | 0.787 |
| ABC-1 | 0.223 | 0.249 | 0.21 | 0.203 | 0.264 | 0.667 | 0.479 | 0.747 | 0.702 | 0.89 | 0.389 | 0.371 | 0.413 | 0.542 | 0.557 | 0.682 | 0.617 | 0.636 | 0.678 | 0.539 |
| BEN | 0.289 | 0.249 | 0.273 | 0.24 | 0.26 | 0.377 | 0.394 | 0.417 | 0.41 | 0.444 | 0.312 | 0.281 | 0.254 | 0.295 | 0.336 | 0.545 | 0.399 | 0.319 | 0.436 | 0.344 |
| CAL-12T | 0.472 | 0.549 | 0.356 | 0.503 | 0.482 | 0.62 | 0.529 | 0.497 | 0.446 | 0.644 | 0.324 | 0.26 | 0.377 | 0.287 | 0.304 | 0.378 | 0.464 | 0.266 | 0.351 | 0.46 |
| COR-L23 | 0.368 | 0.413 | 0.395 | 0.421 | 0.424 | – | – | – | – | – | 0.354 | 0.409 | 0.378 | 0.366 | 0.483 | 0.492 | 0.476 | 0.482 | 0.505 | 0.567 |
